Reference: patent US20030032674A1, “Use of unsaturated fatty acids to treat severe inflammatory diseases” (priority 2001, published 2003)

What was measured:
[1] = biological target: T1, TLR2 (Homo sapiens, UniProt O60603); assay: NFκB reporter in TLR2-transfected 293T cells; format: cell-based; conditions: PamCAG 100 ng/ml
T1 construct: expressed in transfected cells; host or cells: 293T (stated not to express TLR2)
From the text: Plasmids and DNA Constructs—All plasmids and constructs were obtained or made as reported in either S. H. Rhee and D. Hwang, “Murine TOLL-like receptor 4 confers lipopolysaccaride responsiveness as determined by activation of NFκB and expression of the inducible cyclooxygenase,” Journal of Biological Chemistry, vol. 275, pp. 34035-34040 (2000); and J. Y. Lee et al., “Saturated fatty acids, but not unsaturated fatty acids, induce the expression of cyclooxygenase-2 mediated through TOLL-like receptor 4,” Journal of Biological Chemistry, vol. 276, pp. 16683-16689 (2001). Briefly, the luciferase reporter plasmids (pGL2) containing the promoter region of the murine COX-2 gene (−3201/+93 or −1017/+93) were provided by David Dewitt (Michigan State University, East Lansing, Mich.). To prepare the wild-type COX-2 promoter fragment, polymerase chain reaction (PCR) was performed with the primers named Kpn-COX2-For and Hind-COX2-Rev using the murine COX-2 (−1017/+93) luciferase reporter plasmid as a template. To prepare the mutant COX-2 promoter fragment containing mutated NFκB site, Kpn-COX2-Fmut and Hind-COX2-Rev were used as primers. […]
Acylation by saturated fatty acids of bacterial lipopeptides is also required for the activation of TLR2. […] After 18 hr, luciferase activities were determined. […]

[2] = test system: iNOS expression; assay: iNOS immunoblot in RAW 264.7 cells; format: cell-based, murine; conditions: lauric acid 1, 10, 50, 100 μM with BSA, 11 h
Experimental: (§1) Cell culture—RAW 264.7 cells (a murine macrophage-like cell line, ATCC TIB-71), 293T cells (a human embryonic kidney cell line, provided by Sam Lee, Beth Israel Hospital. Boston, Mass.), and HT-29 cells (a human colon adenocarcinoma cell line, ATCC HTB-38) were cultured in Dulbecco's modified Eagle's medium (DMEM) containing 10% (v/v) heat-inactivated fetal bovine serum (FBS, Intergen) and 100 units/ml Penicillin and […] Streptomycin (GIBCO-BRL) at 37° C. in a 5% CO2/air environment. Cells (2×10^6) were plated in 60-mm dishes and cultured for an additional 18 hours to allow the number of cells to approximately double. Cells were maintained in serum-poor (0.25% FBS) medium for another 18 hours prior to the treatment with indicated reagents.
(§2) Preparation of fatty acids-albumin complexes—All fatty acids were solubilized in ethanol, and then combined with fatty acid-free and low-endotoxin BSA at a molar ratio of 10:1 (fatty acid: albumin) in serum-poor medium (0.25% FBS). […]
(§3) After 11 h, cell lysates were analyzed by COX-2, iNOS, IL-1α, or GAPDH immunoblot using a Western blot analysis.
(§4) RAW 264.7 cells were pretested with various concentrations (5, 10, 20, and 50 μM) of docosahexaenoic acid (C22:6n-3) for 3 hours, and then stimulated with LPS (100 ng/ml) for 8 hours and analyzed by COX-2, iNOS, IL-1 a or GAPDH immunoblot.

[3] = test system: IL-1α expression; assay: IL-1α immunoblot in RAW 264.7 cells; format: cell-based, murine; conditions: lauric acid 1, 10, 50, 100 μM with BSA, 11 h
Experimental: as §1, §2, §3, §4

T1 sequence (O60603 21-784, species assumed): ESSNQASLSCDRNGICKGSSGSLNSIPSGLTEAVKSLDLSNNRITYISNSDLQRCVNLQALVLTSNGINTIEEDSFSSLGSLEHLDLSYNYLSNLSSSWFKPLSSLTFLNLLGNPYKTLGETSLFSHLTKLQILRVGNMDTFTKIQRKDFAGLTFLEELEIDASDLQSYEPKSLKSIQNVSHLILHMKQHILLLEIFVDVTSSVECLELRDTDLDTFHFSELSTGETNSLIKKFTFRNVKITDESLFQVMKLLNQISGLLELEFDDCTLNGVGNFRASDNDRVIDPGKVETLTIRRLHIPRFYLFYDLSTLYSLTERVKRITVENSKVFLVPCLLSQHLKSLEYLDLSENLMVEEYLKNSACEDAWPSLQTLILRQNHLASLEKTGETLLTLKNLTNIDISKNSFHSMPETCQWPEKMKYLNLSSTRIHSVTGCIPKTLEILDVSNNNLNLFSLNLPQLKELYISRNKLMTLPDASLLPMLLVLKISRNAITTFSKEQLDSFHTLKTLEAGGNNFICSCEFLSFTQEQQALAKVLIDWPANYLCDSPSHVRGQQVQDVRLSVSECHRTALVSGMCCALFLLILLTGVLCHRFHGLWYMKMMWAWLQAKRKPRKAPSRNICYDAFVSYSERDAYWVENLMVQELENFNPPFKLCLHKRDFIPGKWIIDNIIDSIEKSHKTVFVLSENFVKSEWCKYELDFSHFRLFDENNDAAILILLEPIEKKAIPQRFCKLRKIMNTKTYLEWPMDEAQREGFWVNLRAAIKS

- effect on NFκB activation induced by PamCAG [1]: potentiated
SMILES: CCCCCCCCCCCC(=O)O [lauric acid]
- iNOS expression induced by fatty acid (immunoblot) [2]: induced
- IL-1α expression induced by fatty acid (immunoblot) [3]: induced
